Test results as given in US12168003B2, “Selective inhibition of T follicular helper cells for treatment of autoimmune disorders” (priority 2019, dated 2024).

Assays:
[1] = tested on: differentiated TH1, TH2 or TH17 cells; assay: In vitro CD4+ T cell differentiation and cytokine production; format: cell-based, mouse; details: 20 μM 4EGI-1, 48 hours
Experimental: Naïve CD4^+ T cells were isolated (EasySep™ Naïve CD4^+ T cell isolation; StemCell) and incubated in mouse T cell media (described under “Silencing of eIF4E in OT2 T cells by lentivirus transduction section”) containing soluble 1 μg/mL anti-CD28, cytokines, and anti-cytokine antibodies as detailed for polarization to TH1: 10 ng/mL mouse IL-12, 50 U/mL human IL-2, 10 μg/mL anti-mouse IL-4; TH2: 10 ng/mL mouse IL-4, 50 U/mL human IL-2, 10 μg/mL anti-mouse IFN-γ; TH17: 20 ng/mL mouse IL-6, 10 ng/mL mouse IL-23, 10 ng/mL mouse IL-113, 2 ng/mL human TGF-β1, 50 U/mL human IL-2 […], 10 μg/mL anti-mouse IFN-γ; and Treg: 2 ng/mL mouse TGFβ, 300 U/mL human IL-2. TH1, TH2, and TH17 differentiation kits (Cytobox) along with human IL-2 were purchased from Miltenyi Biotec. Mouse TGFβ was purchased from BioLegend®. Naïve CD4^+ T cells in conditions described above were activated on 10 μg/mL anti-CD3 coated plates for 3 days. Following differentiation, 20 μM 4EGI-1 was added to T cell cultures for 48 hours. Supernatant was removed and cytokine levels were determined using LEGENDPlex Mouse Th Cytokine Panel (BioLegend®).

EAE mice = assay: Active EAE (MOG33-55/CFA), 4EGI-1 after onset of clinical symptoms; format: in vivo, mouse
Experimental: Ten-week old female mice purchased from Jackson Laboratory were subcutaneously injected at two sites with 100 μL […] emulsified in CFA (Hooke Labs) per flank. On the same day, 6 hours later, and on day 2, mice were injected with 100 ng of pertussis toxin in 200 μL i.p. Mice were monitored daily and scored on a scale of 0-5 where 0, no disease; 1, tail paralysis; 2; hind limb paresis; 3, complete hind limb paralysis; 4, front limb weakness and hind limb paralysis, and 5, moribund state. When stated, mice were either administered 25 mg/kg 4EGI-1 or vehicle i.p. from d 0 to 21 following EAE induction or 75 mg/kg 4EGI-1 or vehicle i.p. from day 12 to 21 following EAE induction and randomization. LFB-H images imported into FIJI underwent color deconvolution to isolate myelin staining. A binary image was generated and % myelination of the spinal cord was calculated. Spinal cords from mice not subjected to EAE were set to 100% and all other samples from the same group were normalized. H&E images imported into FIJI underwent color deconvolution to isolate hematoxylin staining. A binary image was generated and % infiltration of the spinal cord of was calculated. Five-micron sections of paraffin embedded tissue were stained with Akoya Biosciences® Opal™ multiplex automation kit reagents unless stated otherwise. Automated staining was performed on Leica BondRX® autostainer. The protocol was performed according to manufacturers' instructions with primary antibodies to CD19 (Cell Signaling Technology, cat #90176) and CD4 (Cell Signaling Technology, cat #25229). Briefly, all slides underwent sequential epitope retrieval with Leica Biosystems epitope retrieval 2 solution (EDTA based, pH9, Cat. AR9640), primary and secondary antibody incubation and tyramide signal amplification (TSA) with Opal® fluorophores Op690 and Op520. Primary and secondary antibodies were removed during epitope retrieval steps while fluorophores remain covalently attached to the epitope. Semi-automated image acquisition was performed on a Vectra® Polaris multispectral imaging system. After whole slide scanning at 10× the tissue was manually outlined to select fields for multispectral imaging at 20×. Phenochart® software from Akoya Biosciences was used for spectral unmixing of the whole slide scans. Scans were imported into QuPath and representative images were exported into FIJI.

## O=C(O)C(Cc1ccccc1[N+](=O)[O-])=NNc1nc(-c2ccc(Cl)c(Cl)c2)cs1 (mixture of isomers) [4EGI-1]
[1]
  secretion of IFN-γ or TNF-α by differentiated TH1 cells: not altered
  secretion of IL-13 by in vitro differentiated TH2 cells: did not affect
  secretion of IL-17A or IL-17F by differentiated TH17 cells: not altered
EAE mice; 75 mg/kg from day 12
  day by which mice entered remission: ≤ 15 days
  decrease of CD4+ T cells producing IFN-γ in spinal cord and brain: 4 fold
  decrease of CD4+ T cells producing IL-17A in spinal cord and brain: 4 fold
  decreased infiltration and retention of CD4+ T cells in brain: 4 fold
  time to marked improvement in clinical symptoms after 4EGI-1 administration: 2 to 3 days
EAE mice; 75 mg/kg from day 12, H&E
  spinal cord immune cell infiltration: marked reduction
EAE mice; 75 mg/kg from day 12, day 18
  weight compared to vehicle-treated animals: increased
EAE mice; 75 mg/kg from day 12, day 21
  decreased infiltration and retention of CD4+ T cells in spinal cord: 4 fold
  decreased levels of splenic TFH cells: 3 fold
  demyelination compared to vehicle-treated mice: reduced
EAE mice; 75 mg/kg from day 12, day 21, Luxol fast blue
  myelination regained, relative to normal levels: ~90%
EAE mice; 75 mg/kg from day 12, immunofluorescence
  ELFs / CD4+ T cell clusters in spinal cord: smaller clusters
EAE mice; 75 mg/kg from day 12, vs vehicle-treated mice
  progression of disease: inhibited
